# Source: PubChem BioAssay AID1963844 (Molecular Pharmacology Branch, DTP, NCI, 2024)
# Tested on: 422866-222-R5-J1-PDC complex spheroid viability
# Test: Anticancer human tumor 422866-222-R5-J1-PDC patient-derived pancreatic adenocarcinoma cell line growth inhibition [POLQ]
# Conditions: for IC50: curve of first compound; for viability, T/C: stronger effect = lower value
# Description: Multicellular complex tumor spheroid response to Polymerase (POL) inhibitors (novobiocin, ART-558, RP6685) in combination with a variety of drugs and investigational agents in selected tumor cell lines
# The POL inhibitors (novobiocin, ART-558, and RP6685) were evaluated both individually and in combination with standard of care and investigational anticancer small molecules within a complex spheroid model of solid tumors. . Complex spheroids include a stromal component modeled by human endothelial cells (HUVEC) and fibroblasts modeled by human mesenchymal stem cells (MSCs). The concentration ranges selected for each drug and investigational agent were based upon clinically achievable concentrations if the clinical Cmax of the agent was known.
# Compounds. The drugs and investigational agents: novobiocin (NSC847541), ART-558 (NSC835418), RP-6685 (NSC848927), peposertib (NSC802822), ceralasertib (NSC780249), elimusertib (NSC800525), camonsertib (NSC841442), AZD-1390 (NSC803789), olaparib (NSC753686), talazoparib (NSC767125), rucaparib (NSC756644), sotorasib (NSC818433), MRTX-1133 (NSC836407), SN-38 (NSC673596), topotecan (NSC609699), epotoside (NSC141540), doxorubicin (NSC123127), gemcitabine (NSC613327), 5-fluorouracil (NSC19893), paclitaxel (NSC125973), vemurafenib (NSC761431), MSA-2 (NSC828583), SN-011 (NSC837082), adavosertib (NSC754352), prexasertib (NSC758257), carboplatin (NSC241240) and oxaliplatin (NSC266046), were obtained from the National Cancer Institute (NCI) Developmental Therapeutics Program Chemical Repository (21). The FDA-approved anticancer drug set is available from the Developmental Therapeutics Program at https://dtp.cancer.gov/organization/dscb/obtaining/. […] The stock solutions were prepared in dimethyl sulfoxide (DMSO, Sigma-Aldrich, St. Louis, MO, cat. D2650), except for the platinum compounds which were prepared in saline (Quality Biological, Gaithersburg, MD, cat. 114-055-101), at 800-fold the tested concentration and stored at -70 degrees C prior to their use. All drugs and investigational agents were tested over a range starting from a high concentration at or near the clinical Cmax and decreasing in half-log increments. If the clinical Cmax for an agent had not been determined, the highest concentration tested was 10 microM, except for SN-38, which was tested at a high concentration of 1 microM.
# Cell Culture. All cells were maintained in an incubator at 37 degrees C and 5% CO2 with 95% humidity. The PDC lines were cultured according to standard operating procedures established by the NCI PDMR (https://pdmr.cancer.gov). Table 3 of the manuscript, lists the cell lines along with the number of the three cell types plated to form the mct-spheroids and media for tumor cell growth. After thawing, all PDC lines, except 997537-175-T-J1-PDC and 415267-285-R-J2-PDC, were cultured in Matrigel-coated flasks prepared with a working solution of 1X Ham's F-12 nutrient mix, without supplementation (Thermo Fisher Scientific, cat. 11765054), 100 U/mL penicillin-streptomycin (Thermo Fisher Scientific, cat. 15140122), and 2.5% Matrigel (Corning Inc., Corning, NY, cat. 354248) for the first three passages. The two PDC lines 997537-175-T-J1-PDC and 415267-285-R-J2-PDC were cultured on uncoated flasks. The 857933-349-R-J2-PDC line was cultured in 6C/Colon 1B media containing advanced DMEM/F-12 (Thermo Fisher Scientific, cat. 12634028), 10 mM HEPES (Thermo Fisher Scientific, cat. 15630080), 1X GlutaMAX supplement (Thermo Fisher Scientific, cat. 35050061), 0.1 mg/mL primocin (InvivoGen, San Diego, CA, cat. ant-pm-2), 10% defined fetal bovine serum, heat inactivated (HyClone Laboratories Inc., Logan, UT, cat. SH30070.03HI), 50% L-WRN conditioned media (ATCC, cat. CRL-3276), 1.25 mM N-Acetyl-L-cysteine (Sigma-Aldrich, cat. A9165), 10 mM nicotinamide (Sigma-Aldrich, cat. N0636), 1X B-27 supplement (Thermo Fisher Scientific, cat. 17504044), 1X N-2 supplement (Thermo Fisher Scientific, cat. […]
# [1] = second compound 0.0316 µM, first compound 0.0316 µM
# [2] = second compound 0.0316 µM, first compound 0.1 µM
# [3] = second compound 0.0316 µM, first compound 0.316 µM
# [4] = second compound 0.0316 µM, first compound 1 µM
# [5] = second compound 0.0316 µM, first compound 3.16 µM
# [6] = second compound 0.0316 µM, first compound 10 µM
# [7] = second compound 0.1 µM, first compound 0.0316 µM
# [8] = second compound 0.1 µM, first compound 0.1 µM
# [9] = second compound 0.1 µM, first compound 0.316 µM
# [10] = second compound 0.1 µM, first compound 1 µM
# [11] = second compound 0.1 µM, first compound 3.16 µM
# [12] = second compound 0.1 µM, first compound 10 µM
# [13] = second compound 0.316 µM, first compound 0.0316 µM
# [14] = second compound 0.316 µM, first compound 0.1 µM
# [15] = second compound 0.316 µM, first compound 0.316 µM
# [16] = second compound 0.316 µM, first compound 1 µM
# [17] = second compound 0.316 µM, first compound 3.16 µM
# [18] = second compound 0.316 µM, first compound 10 µM
# [19] = second compound 1 µM, first compound 0.0316 µM
# [20] = second compound 1 µM, first compound 0.1 µM
# [21] = second compound 1 µM, first compound 0.316 µM
# [22] = second compound 1 µM, first compound 1 µM
# [23] = second compound 1 µM, first compound 3.16 µM
# [24] = second compound 1 µM, first compound 10 µM
# [25] = second compound 3.16 µM, first compound 0.0316 µM
# [26] = second compound 3.16 µM, first compound 0.1 µM
# [27] = second compound 3.16 µM, first compound 0.316 µM
# [28] = second compound 3.16 µM, first compound 1 µM
# [29] = second compound 3.16 µM, first compound 3.16 µM
# [30] = second compound 3.16 µM, first compound 10 µM
# [31] = second compound 10 µM, first compound 0.0316 µM
# [32] = second compound 10 µM, first compound 0.1 µM
# [33] = second compound 10 µM, first compound 0.316 µM
# [34] = second compound 10 µM, first compound 1 µM
# [35] = second compound 10 µM, first compound 3.16 µM
# [36] = second compound 10 µM, first compound 10 µM
# 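Also: spheroids exposed to compounds for one week before readout.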
# 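For viability, T/C in this document: percent of DMSO vehicle wells luminescence so 100% = untreated viability.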
smiles,measurement,setting,value
C=CC(=O)N1CCN(c2nc(=O)n(-c3c(C)ccnc3C(C)C)c3nc(-c4c(O)cccc4F)c(F)cc23)C(C)C1 (centres undefined) + Nc1ccc(C#CCN(C(=O)Cc2ncc(C(F)(F)F)cc2C(F)(F)F)c2ccc(F)cc2)nn1,IC50,second compound 0.0316 µM,< 31.6 nM
same,IC50,second compound 0.1 µM,< 31.6 nM
same,IC50,second compound 0.316 µM,< 31.6 nM
same,IC50,second compound 1 µM,< 31.6 nM
same,IC50,second compound 3.16 µM,< 31.6 nM
same,IC50,second compound 10 µM,< 31.6 nM
same,"viability, T/C",[1],32.5%
same,"viability, T/C",[2],28.5%
same,"viability, T/C",[3],28.3%
same,"viability, T/C",[4],28.5%
same,"viability, T/C",[5],27.4%
same,"viability, T/C",[6],23.7%
same,"viability, T/C",[7],32%
same,"viability, T/C",[8],31.2%
same,"viability, T/C",[9],24%
same,"viability, T/C",[10],25.7%
same,"viability, T/C",[11],23.7%
same,"viability, T/C",[12],22.4%
same,"viability, T/C",[13],40.1%
same,"viability, T/C",[14],27.8%
same,"viability, T/C",[15],29%
same,"viability, T/C",[16],24.4%
same,"viability, T/C",[17],25.1%
same,"viability, T/C",[18],24.2%
same,"viability, T/C",[19],34%
same,"viability, T/C",[20],33.1%
same,"viability, T/C",[21],25.9%
same,"viability, T/C",[22],23.2%
same,"viability, T/C",[23],22.2%
same,"viability, T/C",[24],21.1%
same,"viability, T/C",[25],33.4%
same,"viability, T/C",[26],27.7%
same,"viability, T/C",[27],29.6%
same,"viability, T/C",[28],24.5%
same,"viability, T/C",[29],24.4%
same,"viability, T/C",[30],29.1%
same,"viability, T/C",[31],30.8%
same,"viability, T/C",[32],32.6%
same,"viability, T/C",[33],32.4%
same,"viability, T/C",[34],26.3%
same,"viability, T/C",[35],24.9%
same,"viability, T/C",[36],27.6%
CC1COCCN1c1cc(C2(S(C)(=N)=O)CC2)nc(-c2ccnc3[nH]ccc23)n1 (centres undefined) + Nc1ccc(C#CCN(C(=O)Cc2ncc(C(F)(F)F)cc2C(F)(F)F)c2ccc(F)cc2)nn1,IC50,second compound 0.0316 µM,2460 nM
same,IC50,second compound 0.1 µM,1830 nM
same,IC50,second compound 0.316 µM,1750 nM
same,IC50,second compound 1 µM,2120 nM
same,IC50,second compound 3.16 µM,1740 nM
same,IC50,second compound 10 µM,1900 nM
same,"viability, T/C",[1],105%
same,"viability, T/C",[2],81.7%
same,"viability, T/C",[3],80.9%
same,"viability, T/C",[4],64.5%
same,"viability, T/C",[5],38%
same,"viability, T/C",[6],42.6%
same,"viability, T/C",[7],92%
same,"viability, T/C",[8],96.5%
same,"viability, T/C",[9],95.3%
same,"viability, T/C",[10],58.9%
same,"viability, T/C",[11],41.4%
same,"viability, T/C",[12],42.2%
same,"viability, T/C",[13],89.8%
same,"viability, T/C",[14],96%
same,"viability, T/C",[15],89.7%
same,"viability, T/C",[16],65.6%
same,"viability, T/C",[17],32.5%
same,"viability, T/C",[18],34%
same,"viability, T/C",[19],107%
same,"viability, T/C",[20],112%
same,"viability, T/C",[21],92.4%
same,"viability, T/C",[22],70.5%
same,"viability, T/C",[23],38.7%
same,"viability, T/C",[24],28.2%
same,"viability, T/C",[25],87.3%
same,"viability, T/C",[26],108%
same,"viability, T/C",[27],98.8%
same,"viability, T/C",[28],57.2%
same,"viability, T/C",[29],40.8%
same,"viability, T/C",[30],43.5%
same,"viability, T/C",[31],109%
same,"viability, T/C",[32],117%
same,"viability, T/C",[33],102%
same,"viability, T/C",[34],65.9%
same,"viability, T/C",[35],37.8%
same,"viability, T/C",[36],31.8%
